Reference: publication PMC9516332 (Frontiers in Oncology, 2022)
Like-named read-outs stand apart in the source and are kept apart here.

Tested on: 134 cancer cell lines
Experiment: Cell viability assay (ATPlite, 72 hours), IC50 on cancer cell line panel

SMILES: O=C(Nc1cnn2ccc(N3CCC[C@@H]3c3cc(F)ccc3F)nc12)N1CC[C@H](O)C1 [larotrectinib]
- IC50 (HEC-6, read-out: IC50 in cell proliferation assay, HEC-6 cell line (EGFR p.A289V)): > 31.6 µM
- IC50 (Homo sapiens, 769-P, read-out: IC50 in cell proliferation assay, cell line 769-P): > 31.6 µM
- IC50 (Homo sapiens, 786-0, read-out: IC50 in cell proliferation assay, cell line 786-O): > 31.6 µM
- IC50 (Homo sapiens, A 172, read-out: IC50 in cell proliferation assay, cell line A-172): > 31.6 µM
- IC50 (Homo sapiens, A204, read-out: IC50 in cell proliferation assay, cell line A-204): > 31.6 µM
- IC50 (Homo sapiens, A498, read-out: IC50 in cell proliferation assay, cell line A-498): > 31.6 µM
- IC50 (Homo sapiens, A549, read-out: IC50 in cell proliferation assay, cell line A-549): > 31.6 µM
- IC50 (Homo sapiens, A704, read-out: IC50 in cell proliferation assay, cell line A-704): > 31.6 µM
- IC50 (Homo sapiens, A-375, read-out: IC50 in cell proliferation assay, cell line A-375 (BRAF p.V600E)): > 31.6 µM
- IC50 (Homo sapiens, A-427, read-out: IC50 in cell proliferation assay, cell line A-427): > 31.6 µM
- IC50 (Homo sapiens, ACHN, read-out: IC50 in cell proliferation assay, cell line ACHN): > 31.6 µM
- IC50 (Homo sapiens, AN3-CA, read-out: IC50 in cell proliferation assay, cell line AN3-CA (FGFR2 p.N549K)): > 31.6 µM
- IC50 (Homo sapiens, ASPC1, read-out: IC50 in cell proliferation assay, cell line AsPC-1): > 31.6 µM
- IC50 (Homo sapiens, AU565, read-out: IC50 in cell proliferation assay, cell line AU565 (ERBB2 amplification)): > 31.6 µM
- IC50 (Homo sapiens, BT-20, read-out: IC50 in cell proliferation assay, cell line BT-20): > 31.6 µM
- IC50 (Homo sapiens, BT-474, read-out: IC50 in cell proliferation assay, cell line BT-474 (ERBB2 amplification)): > 31.6 µM
- IC50 (Homo sapiens, BT-549, read-out: IC50 in cell proliferation assay, cell line BT-549): > 31.6 µM
- IC50 (Homo sapiens, BXPC-3, read-out: IC50 in cell proliferation assay, cell line BxPC-3): > 31.6 µM
- IC50 (Homo sapiens, C-33-A, read-out: IC50 in cell proliferation assay, cell line C-33 A): > 31.6 µM
- IC50 (Homo sapiens, CAL-27, read-out: IC50 in cell proliferation assay, cell line CAL-27): > 31.6 µM
- IC50 (Homo sapiens, CCF-STTG1, read-out: IC50 in cell proliferation assay, cell line CCF-STTG1): > 31.6 µM
- IC50 (Homo sapiens, CCRF-CEM, read-out: IC50 in cell proliferation assay, cell line CCRF-CEM): > 31.6 µM
- IC50 (Homo sapiens, COLO 205, read-out: IC50 in cell proliferation assay, cell line COLO 205 (BRAF p.V600E)): > 31.6 µM
- IC50 (Homo sapiens, COLO-829, read-out: IC50 in cell proliferation assay, cell line COLO 829 (BRAF p.V600E)): > 31.6 µM
- IC50 (Homo sapiens, DLD-1, read-out: IC50 in cell proliferation assay, cell line DLD-1): > 31.6 µM
- IC50 (Homo sapiens, DU-4475, read-out: IC50 in cell proliferation assay, cell line DU4475 (BRAF p.V600E)): > 31.6 µM
- IC50 (Homo sapiens, Daoy, read-out: IC50 in cell proliferation assay, cell line Daoy): > 31.6 µM
- IC50 (Homo sapiens, DoTc2-4510, read-out: IC50 in cell proliferation assay, cell line DoTc2 4510): > 31.6 µM
- IC50 (Homo sapiens, EOL1, read-out: IC50 in cell proliferation assay, cell line EoL-1 (FIP1L1-PDGFRA)): > 31.6 µM
- IC50 (Homo sapiens, FaDu, read-out: IC50 in cell proliferation assay, cell line FaDu): > 31.6 µM
- IC50 (Homo sapiens, G-361, read-out: IC50 in cell proliferation assay, cell line G-361 (BRAF p.V600E)): > 31.6 µM
- IC50 (Homo sapiens, HCC827, read-out: IC50 in cell proliferation assay, cell line HCC827 (EGFR exon19del)): > 31.6 µM
- IC50 (Homo sapiens, HCC4006, read-out: IC50 in cell proliferation assay, cell line HCC4006 (EGFR exon19del)): > 31.6 µM
- IC50 (Homo sapiens, HCT-15, read-out: IC50 in cell proliferation assay, cell line HCT 15): > 31.6 µM
- IC50 (Homo sapiens, HCT-116, read-out: IC50 in cell proliferation assay, cell line HCT 116): > 31.6 µM
- IC50 (Homo sapiens, HEC-1, read-out: IC50 in cell proliferation assay, HEC-1 cell line): > 31.6 µM
- IC50 (Homo sapiens, HEC-1B, read-out: IC50 in cell proliferation assay, HEC-1-B cell line (EGFR p.A864V)): > 31.6 µM
- IC50 (Homo sapiens, HL-60, read-out: IC50 in cell proliferation assay, HL-60 cell line): > 31.6 µM
- IC50 (Homo sapiens, HT, read-out: IC50 in cell proliferation assay, HT cell line): > 31.6 µM
- IC50 (Homo sapiens, HT-1080, read-out: IC50 in cell proliferation assay, HT-1080 cell line): > 31.6 µM
- IC50 (Homo sapiens, Hs746T, read-out: IC50 in cell proliferation assay, Hs 746.T cell line (MET exon14skip + amplification)): > 31.6 µM
- IC50 (Homo sapiens, Hs-578T, read-out: IC50 in cell proliferation assay, Hs 578T cell line): > 31.6 µM
- IC50 (Homo sapiens, HuTu80, read-out: IC50 in cell proliferation assay, HuTu 80 cell line): > 31.6 µM
- IC50 (Homo sapiens, J82, read-out: IC50 in cell proliferation assay, J82 cell line): > 31.6 µM
- IC50 (Homo sapiens, Jurkat E6.1, read-out: IC50 in cell proliferation assay, Jurkat E6.1 cell line): > 31.6 µM
- IC50 (Homo sapiens, K562, read-out: IC50 in cell proliferation assay, K-562 cell line): > 31.6 µM
- IC50 (Homo sapiens, KATO III, read-out: IC50 in cell proliferation assay, KATO III cell line (FGFR2 amplification)): > 31.6 µM
- IC50 (Homo sapiens, KG-1, read-out: IC50 in cell proliferation assay, KG-1 cell line (FGFR1OP2-FGFR1)): > 31.6 µM
- IC50 (Homo sapiens, KLE, read-out: IC50 in cell proliferation assay, KLE cell line): > 31.6 µM
- IC50 (Homo sapiens, KMS-11, read-out: IC50 in cell proliferation assay, KMS-11 cell line (FGFR3 p.Y373C)): > 31.6 µM
- IC50 (Homo sapiens, KU812, read-out: IC50 in cell proliferation assay, Ku812 cell line): > 31.6 µM
- IC50 (Homo sapiens, Kasumi 1, read-out: IC50 in cell proliferation assay, Kasumi-1 cell line (KIT p.N822K)): > 31.6 µM
- IC50 (Homo sapiens, LC-2-ad, read-out: IC50 in cell proliferation assay, LC-2/ad cell line (CCDC6-RET)): > 31.6 µM
- IC50 (Homo sapiens, LNCaP-Clone-FGC, read-out: IC50 in cell proliferation assay, LNCaP clone FGC cell line): > 31.6 µM
- IC50 (Homo sapiens, LS174T, read-out: IC50 in cell proliferation assay, LS174T cell line): > 31.6 µM
- IC50 (Homo sapiens, LS-411N, read-out: IC50 in cell proliferation assay, LS411N cell line (BRAF p.V600E)): > 31.6 µM
- IC50 (Homo sapiens, LoVo, read-out: IC50 in cell proliferation assay, LoVo cell line): > 31.6 µM
- IC50 (Homo sapiens, MCF7, read-out: IC50 in cell proliferation assay, MCF-7 cell line): > 31.6 µM
- IC50 (Homo sapiens, MDA-MB-231, read-out: IC50 in cell proliferation assay, MDA-MB-231 cell line): > 31.6 µM
- IC50 (Homo sapiens, MDA-MB-453, read-out: IC50 in cell proliferation assay, MDA-MB-453 cell line): > 31.6 µM
- IC50 (Homo sapiens, MDA-MB-468, read-out: IC50 in cell proliferation assay, MDA-MB-468 cell line): > 31.6 µM
- IC50 (Homo sapiens, MG-63, read-out: IC50 in cell proliferation assay, MG-63 cell line): > 31.6 µM
- IC50 (Homo sapiens, MIA PaCa-2, read-out: IC50 in cell proliferation assay, MIA PaCa-2 cell line): > 31.6 µM
- IC50 (Homo sapiens, MKN-45, read-out: IC50 in cell proliferation assay, MKN45 cell line (MET amplification)): > 31.6 µM
- IC50 (Homo sapiens, MOLM-13, read-out: IC50 in cell proliferation assay, MOLM-13 cell line (FLT3 ITD)): 12.6 µM
- IC50 (Homo sapiens, MOLT-4, read-out: IC50 in cell proliferation assay, MOLT-4 cell line): > 31.6 µM
- IC50 (Homo sapiens, MV4-11, read-out: IC50 in cell proliferation assay, MV4-11 cell line (FLT3 ITD)): 26.5 µM
